Measured values from patent US20140024662A1, “COMPOUNDS, SCREENS, AND METHODS OF TREATMENT” (Shanghai Institute of Organic Chemistry, priority 2006, published 2014).
Where two headings read alike, the source gives them in different places.

Test system: FADD-deficient Jurkat cells
Experiment: necroptosis assay: FADD-deficient Jurkat cells treated with TNFα, cell viability
Assay type: cell-based, human
Details: for EC50: effective concentration for half-maximum response, inhibition of necroptosis in FADD-deficient Jurkat cells treated with TNFα; for activity in the necroptosis assay, in words / Max Prot: FADD-deficient Jurkat cells treated with TNFα; for Max Prot: max viability obtained in the presence of a compound; call rule not given here
Description: Herein we describe the structure activity analysis of Nec-5 analogs.

SMILES | EC50 | also measured
CSc1nc2sc(C)c(C)c2c(=O)n1-c1ccc(OC(F)(F)F)cc1 [Compound 160] | inactive | –
CCCCSc1nc2sc3c(c2c(=O)n1-c1ccc(OC)cc1)CCCC3 [Compound 9] | inactive | –
COc1ccc(-n2c(SC)nc3sc4c(c3c2=O)CCCC4)cc1OC [Compound 58] | – | activity in the necroptosis assay, in words: showed some activity; EC50 (read-out: EC50): 16.7 µM; Max Prot: 54.5%
CCc1c(C)sc2nc(SCCO)n(-c3ccc4c(c3)OCO4)c(=O)c12 [Compound 180] | inactive | –
C#CCSc1nc2sc(CC)c(C)c2c(=O)n1-c1ccc(OC)cc1 [Compound 107] | inactive | –
O=c1c2c3c(sc2nc(SCc2ccccc2)n1-c1ccccc1)CCCC3 [Compound 171] | inactive | –
CCCC(=O)Sc1nc2sc3c(c2c(=O)n1-c1ccc(OC)cc1)CCCC3 [Compound 22] | inactive | –
COc1ccc(-n2c(SCC(C)=O)nc3sc4c(c3c2=O)CCCC4)cc1 [Compound 18] | inactive | –
COc1ccc(-n2c(SC[N+](=O)[O-])nc3sc4c(c3c2=O)CCC4)cc1 [Compound 102] | inactive | –
COc1ccc(-n2c(SCc3ccc([N+](=O)[O-])cc3)nc3sc4c(c3c2=O)CCCC4)cc1 [Compound 17] | inactive | –
CCOc1ccc(-n2c(SC)nc3sc4ccccc4c3c2=O)cc1 [Compound 151] | inactive | –
CCCCSc1nc2sc3c(c2c(=O)n1-c1ccc(OC)cc1)CCC3 [Compound 95] | inactive | –
CSc1nc2sc3c(c2c(=O)n1-c1ccc(OC(F)(F)F)cc1)CCC3 [Compound 182] | inactive | –
CCc1c(C)sc2nc(SC)n(-c3ccc4c(c3)OCO4)c(=O)c12 [Compound 131] | inactive | activity in the necroptosis assay, in words: inactive
N#CCSc1nc2sc3c(c2c(=O)n1-c1ccc2c(c1)OCCO2)CCCC3 [Compound 134] | – | EC50 (read-out: EC50): 0.22 µM; Max Prot: 100%
COc1ccc(-n2c(SCC(=O)Nc3ccccc3C(F)(F)F)nc3sc4c(c3c2=O)CCCC4)cc1 [Compound 27] | inactive | –

SMILES | EC50 | also measured
CCCc1sc2nc(SCC#N)n(-c3ccc(OC)cc3)c(=O)c2c1C [Compound 69] | inactive | activity in the necroptosis assay, in words: inactive
C=CCSc1nc2sc3c(c2c(=O)n1-c1ccc(OC)cc1)CCC3 [Compound 97] | inactive | –
CSc1nc2sc3c(c2c(=O)n1-c1ccc(C)c(C)c1)CCC3 [Compound 142] | inactive | –
COc1ccc(-n2c(SCC#N)nc3sc(C)cc3c2=O)cc1 [Compound 64] | inactive | –
COc1ccc(-n2c(SCC#N)nc3sc4c(c3c2=O)CCCC4)cc1OC [Compound 47] | – | EC50 (read-out: EC50): 5.7 µM; Max Prot: 57.0%
N#CCSc1nc2sc3c(c2c(=O)n1-c1ccccc1)CCCCC3 [Compound 165] | inactive | –
N#CCSc1nc2sc3c(c2c(=O)n1-c1ccc(OC(F)(F)F)cc1)CCCC3 [Compound 51] | inactive | activity in the necroptosis assay, in words: loss of activity
COc1ccc(-n2c(SC[N+](=O)[O-])nc3sc4c(c3c2=O)CCCC4)cc1 [Compound 26] | inactive | activity in the necroptosis assay, in words: completely destroyed the activity
CSc1nc2sc3c(c2c(=O)n1-c1ccc(F)cc1)CCC3 [Compound 125] | – | EC50 (read-out: EC50): 3 µM; Max Prot: 95%
N#CCSc1nc2sc3c(c2c(=O)n1-c1ccc(OCc2ccccc2)cc1)CCCC3 [Compound 36] | inactive | –
N#CCSc1nc2sc3c(c2c(=O)n1-c1ccc(Br)cc1)CCCC3 [Compound 42] | inactive | activity in the necroptosis assay, in words: activity significantly decreased
CCOc1ccc(-n2c(SCC#N)nc3sc4c(c3c2=O)CCC4)cc1 [Compound 164] | inactive | –
N#CCSc1nc2sc3c(c2c(=O)n1-c1ccc(OC(F)(F)F)cc1)CCC3 [Compound 167] | – | activity in the necroptosis assay, in words: showed some, albeit greatly reduced, activity; EC50 (read-out: EC50): 3.7 µM; Max Prot: 70%
CCc1c(C)sc2nc(SC)n(-c3ccc(OC)cc3)c(=O)c12 [Compound 82] | inactive | –
COc1ccc(-n2c([S+](C)[O-])nc3sc4c(c3c2=O)CCCC4)cc1 (centres unmarked) [Compound 30] | inactive | activity in the necroptosis assay, in words: complete loss of activity
N#CCSc1nc2sc3ccccc3c2c(=O)n1-c1ccc2c(c1)OCCO2 [Compound 135] | – | increase in activity versus para-methoxy (R5 ethylene dioxy compared with para-methoxy): ~2 fold; EC50 (read-out: EC50): 0.15 µM; Max Prot: 100%
